Data reported in patent US6958357B2, “Substituted benzimidazoles, processes for their preparation, their use as medicaments, and medicaments comprising them” (Aventis Pharma Deutschland GmbH, priority 2000, dated 2005).
Where “and” joins values, the source holds several entries; their conditions need not be identical. Equal values may be shown once. Where a name gives a salt, the structure may show the parent alone.

Molecular target: rNHE3 (Rattus norvegicus, UniProt P26433)
Test: recovery of the intracellular pH (pHi) after acidification, BCECF fluorescence, NHE inhibition
Format: cell-based
Details: pH recovery recorded for three minutes in the case of NHE3; bicarbonate-free conditions
Protocol: In this test, the recovery of the intracellular pH (pHi) after an acidification was determined which commences with functional NHE even under bicarbonate-free conditions. For this, the pHi was determined using the pH-sensitive fluorescent dye BCECF (Calbiochem, the precursor BCECF-AM was employed). The cells were first loaded with BCECF. The BCECF fluorescence was determined in a “Ratio Fluorescence Spectrometer” (Photon Technology International, South Brunswick, N.J., USA) at excitation wavelengths of 505 and 440 nm and an emission wavelength of 535 nm and converted into the pHi by means of calibration curves. The cells were incubated in NH4Cl buffer (pH 7.4) even in the case of BCECF loading (NH4Cl buffer: 115 mM NaCl, 20 mM NH4Cl, 5 mM KCl, 1 mM CaCl2, 1 mM MgSO4, 20 mM Hepes, 5 mM glucose, 1 mg/ml of BSA; a pH of 7.4 is set using 1 M NaOH). The intracellular acidification was induced by addition of 975 μl of an NH4Cl-free buffer (see below) to 25 μl aliquots of the cells incubated in NH4Cl buffer. The subsequent rate of pH recovery was recorded for two minutes in the case of NHE1, for five minutes in the case of NHE2, and for three minutes in the case of NHE3. For the calculation of the inhibitory potency of the substances tested, the cells were first investigated in buffers in which a complete pH recovery or no pH recovery at all took place. For the complete pH recovery (100%), the cells were incubated in Na+-containing buffer (133.8 mM NaCl, 4.7 mM KCl, 1.25 mM CaCl2, 1.25 mM MgCl2, 0.97 mM […], 0.23 mM […], 5 mM Hepes, 5 mM glucose; a pH of 7.0 is set using 1 M NaOH). For the determination of the 0% value, the cells were incubated in an Na+-free buffer (133.8 mM choline chloride, 4.7 mM KCl, 1.25 mM CaCl2, 1.25 mM MgCl2, 0.97 mM K2HPO4, 0.23 mM KH2PO4, 5 mM Hepes, 5 mM glucose; a pH of 7.0 is set using 1 M NaOH). The substances to be tested were applied in the Na+-containing buffer. The recovery of the intracellular pH at each tested concentration of a substance was expressed in percent of the maximum recovery. The IC value of the respective substance for the individual NHE subtypes was calculated from the percentage values of the pH recovery by means of the program Sigma-Plot.

Chain of rNHE3 (P26433 29-831): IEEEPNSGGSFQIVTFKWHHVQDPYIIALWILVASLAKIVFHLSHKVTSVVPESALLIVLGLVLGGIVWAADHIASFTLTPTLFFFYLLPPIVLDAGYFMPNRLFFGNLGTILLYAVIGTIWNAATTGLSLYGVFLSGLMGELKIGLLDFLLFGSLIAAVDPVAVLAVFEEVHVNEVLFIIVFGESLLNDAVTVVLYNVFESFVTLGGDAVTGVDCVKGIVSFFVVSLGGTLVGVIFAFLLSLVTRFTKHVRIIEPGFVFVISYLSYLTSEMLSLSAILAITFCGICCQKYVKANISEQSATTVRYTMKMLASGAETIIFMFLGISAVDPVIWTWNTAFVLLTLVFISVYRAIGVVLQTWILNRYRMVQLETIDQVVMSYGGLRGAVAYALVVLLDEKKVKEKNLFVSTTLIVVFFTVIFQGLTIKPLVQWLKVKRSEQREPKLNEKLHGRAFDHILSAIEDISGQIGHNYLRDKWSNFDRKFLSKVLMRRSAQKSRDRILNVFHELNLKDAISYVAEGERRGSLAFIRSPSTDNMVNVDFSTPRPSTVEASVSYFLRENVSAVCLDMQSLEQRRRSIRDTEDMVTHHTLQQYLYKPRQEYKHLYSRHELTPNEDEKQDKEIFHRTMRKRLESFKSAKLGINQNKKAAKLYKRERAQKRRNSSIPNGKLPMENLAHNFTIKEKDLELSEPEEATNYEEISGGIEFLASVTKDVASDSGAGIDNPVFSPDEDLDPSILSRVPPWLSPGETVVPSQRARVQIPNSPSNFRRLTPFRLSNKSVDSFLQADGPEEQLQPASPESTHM

SMILES	IC50
Cc1cccc(C)c1Nc1nc2ccccc2[nH]1 [Example 3, (1H-Benzimidazol-2-yl)-(2,6-dimethylphenyl)amine trifluoracetate]	0.64 µM
Brc1cccc(Br)c1Nc1nc2ccccc2[nH]1 [Example 8, (1H-Benzimidazol-2-yl)-(2,6-dibromophenyl)amine trifluoroacetate]	0.65 µM
FC(F)(F)c1cccc(Cl)c1Nc1nc2ccccc2[nH]1 [Example 11, 2-(2-Trifluoromethyl-6-chlorophenylamino)benzimidazole hydrochloride]	0.83 µM
Fc1c(F)c(F)c2[nH]c(Nc3c(Cl)cccc3Cl)nc2c1F [Example 14, 2-(2,6-Dichlorophenylamino)-4,5,6,7-tetrafluorobenzimidazole hydrochloride]	5.6 µM
Cl.Fc1cc(F)c2[nH]c(Nc3c(Cl)cccc3Cl)nc2c1 [Example 15, 2-(2,6-Dichlorophenylamino)-4,6-difluorobenzimidazole hydrochloride]	1.6 µM
Clc1ccccc1Nc1nc2ccccc2[nH]1 [Example 16, (1H-Benzimidazol-2-yl)-(2-chlorophenyl)amine trifluoroacetate]	0.63 µM
FC(F)(F)c1ccccc1Nc1nc2ccccc2[nH]1 [Example 17, (1H-Benzimidazol-2-yl)-(2-trifluoromethylphenyl)amine trifluoroacetate]	3.5 µM
Brc1ccccc1Nc1nc2ccccc2[nH]1 [Example 18, (1H-Benzimidazol-2-yl)-(2-bromophenyl)amine trifluoroacetate]	1.2 µM
Cc1ccccc1Nc1nc2ccccc2[nH]1 [Example 19, (1H-Benzimidazol-2-yl)-o-tolylamine hydrochloride]	3.5 µM

Second part, the compound after the results:

IC50	SMILES
0.53 µM	Clc1cccc(Cl)c1Nc1nc2ccccc2[nH]1 [Example 1, (1H-Benzimidazol-2-yl)-(2,6-dichlorophenyl)amine hydrochloride]
0.47 µM	Cl.Oc1cccc2[nH]c(Nc3c(Cl)cccc3Cl)nc12 [Example 2, 2-(2,6-Dichlorophenylamino)-1H-benzimidazol-4-ol Hydrochloride]
0.49 µM	Cc1cccc(Cl)c1Nc1nc2ccccc2[nH]1 [Example 4, (1H-Benzimidazol-2-yl)-(2-chloro-6-methylphenyl)amine hydrochloride]
0.78 µM	Fc1cc2nc(Nc3c(Cl)cccc3Cl)[nH]c2cc1F [Example 5, (2,6-Dichlorophenyl)-(5,6-difluoro-1H-benzimidazol-2-yl)amine hydrochloride]
0.39 µM	Cc1cccc2[nH]c(Nc3c(Cl)cccc3Cl)nc12 [Example 6, (2,6-Dichlorophenyl)-(4-methyl-1H-benzimidazol-2-yl)amine trifluoracetate]
0.52 µM	Fc1cccc(Cl)c1Nc1nc2ccccc2[nH]1 [Example 7, (1H-Benzimidazol-2-yl)-(2-chloro-6-fluorophenyl)amine hydrochloride]
1 µM	Fc1ccc2[nH]c(Nc3c(Cl)cccc3Cl)nc2c1 [Example 9, 2-(2,6-Dichlorophenylamino)-5-fluorobenzimidazole hydrochloride]
3.2 µM	Cl.Fc1cccc2nc(Nc3c(Cl)cccc3Cl)[nH]c12 [Example 10, 2-(2,6-Dichlorophenylamino)-4-fluorobenzimidazole hydrochloride]
2.9 µM	Cl.Fc1ccc2nc(Nc3c(Cl)cccc3Cl)[nH]c2c1F [Example 12, 2-(2,6-Dichlorophenylamino)-4,5-difluorobenzimidazole hydrochloride]
1.1 µM	Oc1ccc2[nH]c(Nc3c(Cl)cccc3Cl)nc2c1 [Example 13, 2-(2,6-Dichlorophenylamino)-5-hydroxybenzimidazole hydrobromide]

System: not given
Test: not given
Details: not given

SMILES	melting point
FC(F)(F)c1cccc(Cl)c1Nc1nc2ccccc2[nH]1 (as salt: hydrochloride) [Example 11, 2-(2-Trifluoromethyl-6-chlorophenylamino)benzimidazole hydrochloride]	255 to 288 °C
Fc1c(F)c(F)c2[nH]c(Nc3c(Cl)cccc3Cl)nc2c1F (as salt: hydrochloride) [Example 14, 2-(2,6-Dichlorophenylamino)-4,5,6,7-tetrafluorobenzimidazole hydrochloride]	220 to 222 °C
Cl.Fc1cc(F)c2[nH]c(Nc3c(Cl)cccc3Cl)nc2c1 [Example 15, 2-(2,6-Dichlorophenylamino)-4,6-difluorobenzimidazole hydrochloride]	310 to 314 °C

The next lines start with the values.

melting point	SMILES
265 to 269 °C	Oc1ccc2[nH]c(Nc3c(Cl)cccc3Cl)nc2c1 (as salt: hydrobromid) [Example 13, 2-(2,6-Dichlorophenylamino)-5-hydroxybenzimidazole hydrobromide]
294 to 296 °C	Fc1ccc2[nH]c(Nc3c(Cl)cccc3Cl)nc2c1 (as salt: hydrochloride) [Example 9, 2-(2,6-Dichlorophenylamino)-5-fluorobenzimidazole hydrochloride]
333 to 335 °C	Cl.Oc1cccc2[nH]c(Nc3c(Cl)cccc3Cl)nc12 [Example 2, 2-(2,6-Dichlorophenylamino)-1H-benzimidazol-4-ol Hydrochloride]
268 to 296 °C	Cl.Fc1cccc2nc(Nc3c(Cl)cccc3Cl)[nH]c12 [Example 10, 2-(2,6-Dichlorophenylamino)-4-fluorobenzimidazole hydrochloride]
232 to 234 °C and 228 to 230 °C	Cl.Fc1ccc2nc(Nc3c(Cl)cccc3Cl)[nH]c2c1F [Example 12, 2-(2,6-Dichlorophenylamino)-4,5-difluorobenzimidazole hydrochloride]
